# Key:
# HIV integrase = target: T1, HIV integrase (Human immunodeficiency virus type 1 group M subtype B, UniProt P04585); test: integrase inhibition assay, strand transfer catalyzed by recombinant integrase; assay type: biochemical
# T1 construct: strand transfer is catalyzed by recombinant integrase
# From the text: Integrase inhibition activity can be determined, for example, using the assay described in Hazuda et al., J. Virol. 1997, 71: 7005-7011.
# HIV replication = test: inhibition of acute HIV infection of T-lymphoid cells; assay type: cell-based
# From the text: The active drug substances employed in the pharmaceutical compositions of the present invention (e.g., the 8-hydroxy-1,6-naphthyridine-7-carboxamide compounds of Formula (I) and (II) and Compounds A and B) are inhibitors of HIV integrase. […] Integrase inhibition activity can be determined, for example, using the assay described in Hazuda et al., J. Virol. 1997, 71: 7005-7011. […] Further description of representative compound embraced by Formula I, assays for measuring their integrase inhibition activity and HIV replication activity can be found in WO 02/30930.
# [1] = wettability and water solubility; assay type: physicochemical
# Method: (§1) Since the physiological pH typically lies within this range, the rate of the drug's dissolution in and absorption from the gastrointestinal tract can be low, particularly when the drug is administered in a solid dosage form. The same or similar formulation difficulties can be expected for other 8-hydroxy-1,6-naphthyridine-7-carboxamides of this class and their salts having low solubility at physiological pH's.
# [2] = oral bioavailability when administered to animals; assay type: in vivo
# Method: as §1
# Particle size can affect the oral bioavailability of the active drug substances employed in the pharmaceutical compositions of the invention. […] Accordingly, embodiments of the present invention include each of the pharmaceutical compositions defined and described above, wherein the active drug substance (i.e., Compound I or II or A or B or a pharmaceutically acceptable salt thereof) employed therein has a mean particle size of from about 1 to about 20 μm, or from about 1 to about 10 μm (e.g., from about 3 to about 6 μm wherein 90% of the particles are less than 10 μm).
# [3] = in vitro dispersion of Compound A in aqueous surfactant solutions; assay type: physicochemical; settings: aqueous media at physiological pHs, in the absence of a nonionic surfactant or in the presence of SLS; Na salt milled to 3 μm
# From the text: This PK data is consistent with the results of in vitro experiments characterizing the ability of these surfactants to disperse Compound A. In these experiments, Compound A Na salt (milled to a 3 μm mean particle size) was suspended in acidified aqueous solutions of the surfactant, and the surfactants were ranked for effectiveness in dispersing Compound A based on a visual evaluation of the suspension for turbidity and particle size. The visual evaluations were confirmed by measuring the particle size distributions in the suspensions using a laser scattering particle size distribution analyzer. The results of these tests have shown that Compound A drug particles flocculate in aqueous media at physiological pHs in the absence of a nonionic surfactant or in the presence of SLS.
# [4] = animals, aqueous suspensions containing 0.5 wt. % methocel and 0.02 wt. % sodium lauryl sulfate
smiles,measurement,setting,value
"CNC(=O)c1cc(F)ccc1CNC(=O)c1nc(N2CCCCS2(=O)=O)c2cccnc2c1O [Compound B, N-{4-fluoro-2-[(methylamino)carbonyl]benzyl}-5-(1,1-dioxido-1,2-thiazinan-2-yl)-8-hydroxy-1,6-naphthyridine-7-carboxamide]",HIV integrase inhibition in the strand transfer assay,HIV integrase,potent HIV integrase inhibitors
same,inhibition of HIV replication,HIV replication,very effective
"O=C(NCc1ccc(F)cc1)c1nc(N2CCCCS2(=O)=O)c2cccnc2c1O [Compound A, 5-(1,1-dioxido-1,2-thiazinan-2-yl)-N-(4-fluorobenzyl)-8-hydroxy-1,6-naphthyridine-7-carboxamide]",HIV integrase inhibition in the strand transfer assay,HIV integrase,potent HIV integrase inhibitors
same,wettability,[1],poor wettability
same,water solubility,[1]; pH's between about 2 and about 8,low water solubility
same,oral bioavailability,[2]; [4],satisfactory oral bioavailability
same,inhibition of HIV replication,HIV replication,very effective
same,"dispersion of drug particles (turbidity, particle size)",[3],flocculate
"O=C(NCc1ccc(F)cc1)c1nc(N2CCCCS2(=O)=O)c2cccnc2c1[O-].[Na+] [Compound A sodium salt, 5-(N-1,4-butanesultam)-N-(4-fluorobenzyl)-8-hydroxy-1,6-naphthyridine-7-carboxamide sodium salt]",oral bioavailability,[2]; [4],satisfactory oral bioavailability
same,oral bioavailability,"[2]; animals, wet granulated compressed tablets with lactose, hydroxypropylcellulose, Na croscarmellose, microcrystalline cellulose, Mg stearate (no surfactant)",poor oral bioavailability
same,oral bioavailability,"[2]; capsules containing bulk Compound A sodium salt, versus the suspension",substantially lower oral bioavailability
